Test results from US20090169652A1, “Personal Care Compositions” (priority 2007, published 2009).

Legend:
skin = experiment: clinical study of skin condition; type: in vivo; settings: clinical study by applicant
[1] = test system: Xgene human skin equivalent culture model; experiment: collagen expression in Xgene human skin equivalent culture model; type: cell-based
[2] = test system: MatTek human skin equivalent culture model; experiment: collagen expression in MatTek human skin equivalent culture model; type: cell-based

For `CC(=O)C1C(=O)C=C(C)OC1=O` (stereo not shown) [SDA, sodium dehydroacetic acid], the “appearance of fine lines and wrinkles” value (skin) was “unexpected improvement in the appearance of fine lines and wrinkles”, the “skin condition related to reduced oil” value (skin) was “expected improvements in skin condition related to reduced oil” and the collagen expression [1] was “up-regulated collagen expression”. For the same molecule, the collagen expression [2] was “up-regulated collagen expression”.
